Assay results: a melting point compilation (Tetko et al.; mined from patent text by program, amines drawn as free bases though some values may be those of a salt)

SMILES	melting point [°C]
Cn1cc(-c2nc(C(F)(F)F)c[nH]2)cn1	206 to 207
CCOC(=O)C1CCN(c2cc(C)nc3c2c(C)cn3-c2c(C)cc(Cl)cc2C)CC1	140 to 142
COc1ccc(S(=O)(=O)C(C)(Cc2ccc(OCCN3CCCCC3)cc2)C(N)=O)cc1 (stereo unspecified)	98
COc1cc2c(cc1C#N)[C@@H](O)[C@H](Br)C(C)(C)O2 (relative stereo)	144 to 146
CCN(CC)CCOc1ccc2cc3ccc(OCCN(CC)CC)c(Cl)c3nc2c1Cl	83 to 84
Ic1ccc(CCc2ccc(I)cc2)cc1	150 to 151
CN(C)C(=O)c1ccc(N2CCN(Cc3cnc4c(c3)NC(=O)[C@@H]3CCCN43)CC2)cc1	99.2
CC(=O)Oc1ccc(C(=O)Nc2ccc(Cl)c(NC(=O)c3ccc(C#N)cc3)c2)cc1	195 to 196
COC(=O)c1cc2c(cc1[N+](=O)[O-])OCCO2	115 to 118
CC(C)c1nccn1N=Cc1cc(C(C)(C)C)c(O)c(C(C)(C)C)c1	159 to 160
CC(C)(C)CC(C)(C)NCC(=O)N1CC2C(C1)C2Nc1ncc2cc(-c3ccccc3Cl)c(=O)n(C3CC3)c2n1 (stereo unspecified)	218 to 220
CCCCn1c(=S)sc2c(=N)n(NC(N)=O)cnc21	222
COC(=O)c1cnc(Nc2cc(N3CCN(CCO)CC3)nc(C)n2)s1	242
Cc1ccc(S(=O)(=O)OCC2COc3ccc([N+](=O)[O-])c(C=CC=O)c3O2)cc1 (stereo unspecified)	138 to 140
CS(=O)(=O)c1ccc(Oc2ccc3[nH]c(C4=NCC(CC(=O)N5CCOCC5)S4)cc3c2)cn1 (stereo unspecified)	168 to 169
COc1cc2c(cc1OC)CN(CCCSc1ccc(NC(=O)c3cccc4c(=O)c5cccc(C)c5[nH]c34)cc1)CC2	155
O=C1CCc2c(Cl)sc(-c3ccncc3)c21	163 to 165
O=C1c2c(Cl)cccc2S(=O)(=O)N1Cn1nnn(-c2ccccc2)c1=S	158 to 162

SMILES	melting point [°C]
c1ccc2c(c1)CC(Nc1ncnc3nc[nH]c13)C2	300
CCCN(CCC)c1nc2c(N3CCCCCC3)nc(N3CCOCC3)cc2c(=O)[nH]1	250
Cc1[nH]c(C=O)c(C)c1CNC(=O)C(F)(F)F	200
Nc1ccc(-c2nc3cc(N)ccc3o2)cc1	226 to 228
CS(=O)(=O)NCCC(c1cc(F)ccc1F)S(=O)(=O)c1ccc(Cl)cc1 (stereo unspecified)	131 to 134
CSC(=O)C(C)(C)NC(=O)c1cc2c(n(CC3CCCCC3)c1=O)CCCCCC2	196 to 198
O=C(CC12CC3CC(CC(C3)C1)C2)Nc1ccccc1Cl	122 to 124
CN=c1[nH]c(-c2cc(C)c(OCCCc3cc(C)no3)c(C)c2)no1	126 to 127
Cn1ccc(CNC(=O)c2ccnc(N3CCN(Cc4ccc(F)cc4)C3=O)c2)n1	79 to 81
C=Cn1ccnc1C(O)(c1ccc(C(C)(C)C)cc1)c1ccc(C(C)(C)C)cc1	169 to 170
CC(C)c1cc(-c2c3ccccc3c(Br)c3sc4ccccc4c23)cc(C(C)C)c1O	189 to 190
CC(C)(C)NC(=O)[C@@H]1CC(Cl)CN1C(=O)C(O)[C@H](Cc1ccccc1)NC(=O)[C@H](CC(N)=O)NC(=O)COc1ccc(NC(=O)OCc2ccccc2)cc1 (stereo partly specified)	113 to 115
CC(=O)NNC1=Nc2sc(Cl)cc2C(c2c(F)cccc2F)=NC1	257 to 260
CCc1nc2c(C)cc(C)nc2n1Cc1ccc(C(c2ccccc2)C(CO)c2nnn[nH]2)cc1 (stereo unspecified)	128 to 132
CCC(=O)c1c(O)c(CNC(C)=O)cc2c1CCCC2	136 to 140
CCCC1=C(C#N)C(c2ccccc2Cl)c2c(n[nH]c2C2CCCCC2)N1 (stereo unspecified)	> 270
CC1(C(=O)C(N)=O)CC1(Cl)Cl (stereo unspecified)	92 to 93
CC(C)(C)NC(=O)C1CCN(C(=O)CCl)CC1	140 to 142

Further lines, results first:

melting point [°C]	SMILES
187	COc1cccc(C2(O)c3cccc(O)c3C(=O)c3c(O)cccc32)c1
91 to 93	CCCCCCC(=O)NCCO
141 to 144	COC(=O)/C=C/c1cncc(-c2ccc(C)cc2)c1
125 to 127	CC1C(=O)Nc2c(C(=O)c3ccccc3)cccc21 (stereo unspecified)
178	COc1ccc(S(N)(=O)=O)cc1C(N)=O
53 to 54	Cc1cccc(COCCCC(=O)O)c1
162	CCOc1cc(C)ccc1NC1CCN(CCCCNC(=O)c2ccc(-c3ccc(C(F)(F)F)cc3)cc2)CC1
95	C=CCC(C)(C)C(O)C(c1cccc(Cl)c1)n1ccnc1 (stereo unspecified)
320 to 321	COc1ccc2c(c1)C(=NO)c1c-2c(O)nc2ccccc12
70 to 71	COc1ccc2c(C)cccc2c1C(F)(F)F
152 to 154	CC1(CCC(=O)O)CC(=O)c2ccc(OCc3cccc(OCc4ccc5ccccc5n4)c3)cc2O1 (stereo unspecified)
120 to 121	CC(C)(C(=O)C(Oc1ccc(Cl)cc1Cl)n1cncn1)C(Cl)Cl (stereo unspecified)
212 to 214	COc1cccc(C(N)=O)c1[N+](=O)[O-]
231 to 235	CS(=O)(=O)c1c(C(=O)O)ccc(Cl)c1Oc1ccccc1
86 to 87	CCC(=O)OCOC(=O)C1=C(C)N(COC)C(C)=C(C(=O)OCOC(=O)CC)C1c1cccc([N+](=O)[O-])c1
73.5 to 75	O=C(NCl)c1cccc(C(=O)NCl)c1
103 to 105	CCCCn1cc(S(C)=O)c(=O)c2ccccc21 (stereo unspecified)
250 to 253	O=C(O)C1=Cc2cc(Cl)ccc2N(Cc2ccc(Cl)cc2)C1C(F)(F)F (stereo unspecified)

melting point [°C]	SMILES
218 to 219	CCc1cn(C2CC(O)C(CNC(=O)CS(=O)(=O)c3ccccc3)O2)c(=O)[nH]c1=O (stereo unspecified)
120 to 122	O[C@@H]1CNC[C@H]1Oc1ccccc1 (relative stereo)
50 to 53	COc1ccc(CCC(C)(C)NCC(O)c2cccc(Cl)c2)cc1 (stereo unspecified)
128 to 130	C/C=C(\c1ccccc1)c1cc2cc(OC)ccc2[nH]1
136 to 138	COC(=O)CCCc1cc2cc(Cl)ccc2n1S(=O)(=O)c1ccc2sc(C)nc2c1
142 to 143	COc1ccc(C=CC(=O)N[C@@H](Cc2ccccc2)C(=O)CSCc2ccsc2)c(OC)c1
117 to 119	CCCC(=O)c1cnc2c(C)cccc2c1Nc1ccccc1CC
168 to 171	CCCc1nc2c(N)nc3cc(OCCCNS(C)(=O)=O)ccc3c2s1
147 to 150	CC(COc1ccc(C(N)=O)c(O)c1)NCC(O)COc1ccc(NS(C)(=O)=O)cc1 (stereo unspecified)
89 to 92	COc1cc(OC)nc(Cc2cccnc2NC(=O)OC(C)(C)C)n1
172 to 173	O=C(O)c1cccc(-c2ccc(F)c3cc(Cc4cccc(C(F)(F)F)c4)oc23)c1
104 to 107	CCCCCCCCCCCCCCCCNc1ccc(C(=O)O)cc1
203 to 208	CCCn1c(COCC)nc2c(N)nc3ccc(OCCNC(=O)N4CCOCC4)cc3c21
51 to 53	CCCP(=O)(CCC)COS(=O)(=O)c1c(C)cccc1Cl
142 to 146	COc1cc(N)c(Cl)cc1C(=O)NCC1CCN(CCCCCNC(=O)c2ccc(C)cc2)CC1
77 to 79	O=C(c1cccs1)C1CCN(CCc2ccccc2)CC1
268 to 269	O=C(O)c1cccc2nc3cc(Br)ccc3nc12
